{"source": "patent US4451485A", "about": "“Treatment of cardio-vascular diseases with 3-(2,2,2-trimethylhydrazinium) propionate dihydrate” (Institu Organicheskogo Sinteza Akademii Nauk Latviiskoi SSR, priority 1981, dated 1984)", "key": {"in vivo [1]": {"assay": "in vivo", "set-up": "species or system white mice", "details": "white mice"}, "[2]": {"assay": "Aconitine arrhythmia in rats after repeated peroral administration", "assay_type": "in vivo, white rats", "experimental": "The antiarrhythmic activity was studied in experiments on white rats of both sexes with a mass of 190 to 230 g narcotized by urethane. An ECG was recorded for these animals. Into the femoral vein of the rats, aconitine was introduced at a constant rate and its arrhythmogenic and lethal doses were determined along with their variation under the protective effect of the preparation according to the present invention."}, "[3]": {"assay": "Therapeutic effect on Strophanthin G arrhythmia in rabbits", "assay_type": "in vivo", "experimental": "To investigate the therapeutic effect of the preparation according to the present invention relative to the Strophanthin arrhythmia, another series of experiments was carried out. Strophanthin was intravenously administered to rabbits of both sexes with a mass of 3.0 to 3.8 kg at a general dose of 80 μg/kg which caused arrhythmia within 40-60 minutes. The test preparation was intravenously administered at the background of arrhythmia in the test group.\n(§1) After the administration of the preparation at a dose of 5 mg/kg the regular synusal rhythm was retained for 12±5 minutes on the average, whereafter arrhythmia was gradually renewed, but it could be again eliminated by a repeated administration of the preparation at a dose of 2-5 mg/kg. In such cases the sinusal rhythm was retained for 15 to 30 minutes and in the majority of tests arrhythmia never renewed. Furthermore, an experiment was carried out on narcotized guinea pigs with a mass of 600-710 g to which Strophanthin -K was administered into the femoral vein at a total dose of 500 μg/kg."}, "[4]": {"assay": "Effect on Strophanthin K arrhythmia in narcotized guinea pigs (500 μg/kg)", "assay_type": "in vivo", "experimental": "as §1\nThe preparation based on 3-(2,2,2-trimethylhydrazonium)propionate was intravenously administered against the background of arrhythmia in the test group.\nThe graph illustrates the recording of ECG of a guinea pig.\nThe effect of compound I on Strophanthin arrhythmia in guinea pigs."}, "[5]": {"assay": "Threshold of electric fibrillation of auricles and ventricles in cats", "assay_type": "in vivo", "experimental": "Furthermore, the preparation according to the present invention was tested for specific antiarrhythmic and antianginal effects. […] The effect of the novel pharmaceutical composition according to the present invention was studied on cats weighing 2.9-3.6 kg. The preparation was used as a 10% aqueous solution containing 3-(2,2,2-trimethylhydrazinium)propionate for the determination of the threshold value of electric fibrillation of auricles and ventricles. Under artificial respiration after opening of the thorax and pericardium, needle-like electrodes were applied to the right auricula and apex of the left ventricle. The irritation was effected by square pulses of 1 m.s., 15 st/s.\nFor the comparison of preparations, as the criterion of the range of therapeutic effect, there was used the ratio of the half-lethal dose to the half-effective dose (LD50 /ED50) which was referred to as the antiarrhythmic index. […] The comparative study of the antiarrhythmic activity of pharmaceutical preparations using an acotine model of arrhythmia was effected in experiments on white rats weighing 190-240 g. The test preparations were administered intraperitoneally 10-40 minutes before administration of aconitine."}, "in vivo [6]": {"assay": "in vivo", "assay_type": "in vivo"}, "[7]": {"assay": "Vessel wall irritation and allergenic capacity", "assay_type": "in vivo"}, "[8]": {"assay": "Embryotoxic and teratogenic effects in rats", "assay_type": "in vivo, white rats", "details": "up to 10,000 mg/kg perorally, any day of pregnancy"}, "salmoneallae": {"test_system": "salmoneallae", "assay": "Mutagenous activity on salmonellae", "details": "dihydrate"}, "[9]": {"assay": "Antianginal effect in patients, intravenous", "assay_type": "in vivo", "details": "0.2 to 0.4 g intravenous", "experimental": "(§2) The antianginal and antiarrhythmic effects of the preparation according to the present invention were evaluated with the use of the injection pharmaceutical form of the preparation administered intravenously in an amount of 0.2 to 0.4 g based on the active ingredient."}, "[10]": {"assay": "Efficiency in extrasystolic arrhythmia in patients, intravenous", "assay_type": "in vivo", "details": "1 ml of a 40% solution intravenous; 7 patients", "experimental": "as §2\nThe preparation efficiency in the case of extrasystolic arrhythmia was studied on 7 patients.\nThe intravenous administration of the preparation (1 ml of a 40% solution) arrested the rhythm disorder for 5-20 minutes."}, "[11]": {"assay": "Physicochemical properties of the dihydrate (solubility, stability, hygroscopicity)"}}, "note": "Several values for one entry are separate records, joined by “and”; a condition that tells them apart may be missing. Equal entries are not always repeated. Where two headings read alike, the source gives them in different places."}
{"smiles": "C[N+](C)(C)NCCC(=O)[O-]", "note": "[3-(2,2,2-trimethylhydrazinium)propionate]", "values": [{"measurement": "LD50", "setting": "in vivo [1]; mouse, in vivo, intravenous (Table 2)", "result": 4430, "unit": "mg/kg"}, {"measurement": "Acute toxicity, LD50", "setting": "in vivo [1]; intravenous (Table 5)", "result": "4,430 mg/kg"}, {"measurement": "Aconitine dose variation, arrhythmogenic", "setting": "[2]; 25 mg/kg perorally, 1 week", "result": 38.7, "unit": "%"}, {"measurement": "Aconitine dose variation, lethal", "setting": "[2]; 25 mg/kg perorally, 1 week", "result": 27.6, "unit": "%"}, {"measurement": "Aconitine dose variation, arrhythmogenic", "setting": "[2]; 25 mg/kg perorally, 2 weeks", "result": 42.26, "unit": "%"}, {"measurement": "Aconitine dose variation, lethal", "setting": "[2]; 25 mg/kg perorally, 2 weeks", "result": 24.7, "unit": "%"}, {"measurement": "Aconitine dose variation, arrhythmogenic", "setting": "[2]; 100 mg/kg perorally, 1 week", "result": 55.6, "unit": "%"}, {"measurement": "Aconitine dose variation, lethal", "setting": "[2]; 100 mg/kg perorally, 1 week", "result": 16.2, "unit": "%"}, {"measurement": "Aconitine dose variation, arrhythmogenic", "setting": "[2]; 100 mg/kg perorally, 2 weeks", "result": 34.6, "unit": "%"}, {"measurement": "Aconitine dose variation, lethal", "setting": "[2]; 100 mg/kg perorally, 2 weeks", "result": 9.7, "unit": "%"}, {"measurement": "Protective effect against aconitine", "setting": "[2]; peroral", "result": "pronounced protective effect"}, {"measurement": "Duration regular sinus rhythm was retained", "setting": "[3]; 5 mg/kg, average", "result": "12 ± 5", "unit": "min"}, {"measurement": "Time to arrest of ventricular tachyarrhythmia", "setting": "[3]; 1 to 3 mg/kg intravenous", "result": "1 to 2", "unit": "min"}, {"measurement": "Effect on ventricular tachyarrhythmia", "setting": "[3]; 1 to 3 mg/kg intravenous, majority of tests", "result": "temporarily arrested ventricular tachyarrhythmia"}, {"measurement": "Changes in the complex QRST", "setting": "[3]; intravenous", "result": "reduced"}, {"measurement": "Duration sinusal rhythm was retained after repeated administration", "setting": "[3]; repeated administration, 2-5 mg/kg", "result": "15 to 30", "unit": "min"}, {"measurement": "Effect on atrio-ventricular block", "setting": "[4]; 2-5 mg/kg, timely administration, some cases", "result": "possible to also eliminate the atrio-ventricular block"}, {"measurement": "Changes in the complex QRST and atrial fibrillation", "setting": "[4]; intravenous", "result": "The changes in the complex QRST were reduced and the atrial fibrillation disappeared"}, {"measurement": "Effect on ventricular arrhythmia", "setting": "[4]; intravenous", "result": "temporarily arrested the ventricular arrhythmia"}, {"measurement": "Time to arrest of ventricular arrhythmia", "setting": "[4]; intravenous", "result": "2 to 3", "unit": "min"}, {"measurement": "Increase of the threshold of electrical fibrillation of auricle and ventricles", "setting": "[5]; 6 to 15 mg/kg intravenous", "result": "40-55%"}, {"measurement": "ED50", "setting": "[5]; Felis catus, iv, read-out: ED50, electric irritation of cat's heart", "result": "10 ± 3.5", "unit": "mg/kg"}, {"measurement": "Antiarrhythmic index LD50/ED50, electric irritation of cat's heart", "setting": "[5]; intravenous", "result": "443 and 433"}, {"measurement": "LD50", "setting": "in vivo [6]; mouse, in vivo, ip, read-out: Acute toxicity, LD50", "result": 7850, "unit": "mg/kg"}, {"measurement": "Toxicity lower than that of carbocromene", "setting": "in vivo [6]; vs carbocromene", "result": 12, "unit": "times"}, {"measurement": "Irritation of vessel walls", "setting": "[7]; intravenous", "result": "does not cause irritation of vessel walls"}, {"measurement": "Allergic responses", "setting": "[7]; intravenous and peroral, single or up to 30 days", "result": "nor does it cause allergic responses"}, {"measurement": "Embryotoxic or teratogenic effects", "setting": "[8]", "result": "no embryotoxic or teratogenic effects"}, {"measurement": "Mutagenous activity", "setting": "salmoneallae", "result": "does not have mutagenous activity"}, {"measurement": "Stability of analgesic effect", "setting": "[9]", "result": "not always stable"}, {"measurement": "Effect on retrosternal pains", "setting": "[9]; 8 cases in 5 patients", "result": "rapidly cut short retrosternal pains"}, {"measurement": "Duration of arrest of the rhythm disorder", "setting": "[10]", "result": "5 to 20", "unit": "min"}, {"measurement": "Hygroscopicity", "setting": "[11]; dihydrate", "result": "slightly hygroscopic"}, {"measurement": "Solubility in hot ethanol and methanol", "setting": "[11]; dihydrate", "result": "well soluble"}, {"measurement": "Solubility in nonpolar solvents", "setting": "[11]; dihydrate", "result": "insoluble"}, {"measurement": "Solubility in water", "setting": "[11]; dihydrate", "result": "well soluble"}, {"measurement": "Storage stability", "setting": "[11]; dihydrate, closed area, room temperature", "result": 2, "unit": "years"}, {"measurement": "Thermal stability", "setting": "[11]; heating above 40° C.", "result": "loses crystallization water and slowly decomposes"}]}
